Assay results: US8021848B2, “Rapid and sensitive detection of cells and viruses” (Straus Holdings Inc., priority 2001, dated 2011)

Key:
[1] = test system: E. coli MG1655 (sensitive strain); test: Rapid antimicrobial susceptibility testing (broth dilution, large area CCD imaging); format: cell-based; details: after 4 hours of growth; comparable by CCD imaging, liquid culture or colony counting
Protocol: (§1) Cells of two strains, one resistant and one sensitive, were tested for their ability to grow in a period of several hours in the antibiotic. Growth was detected by large area imaging of individual cells stained with a fluorescent nucleic acid stain.
(§2) Experimental procedure. […] Also at these times points both a visible turbidity growth check and a plate count were performed. The turbidity check was performed according to NCCLS broth dilution guidelines. A “+” was recorded for a turbid culture and a “−” for non-turbid culture. The 1 ml aliquots were then stained with Syber Green I as in Example 2. Aliquots (10 μl) of the stained cells were placed in separate wells (with optically clear bottoms) of a 96 well plate (Greiner America, Inc.; cat. num. 655896), which contained 90 μl of water (Type I quality). The plates were spun in a centrifuge (Beckman Allegra) for 10 min at 600 g and then imaged. Fluorescence was detected by imaging using a CCD imager (described in Step 6 of Detailed description section and shown in FIG. 3) with an FITC optical filter set (Chroma/excitation 470/40 nm, emission 522/40 nm). Image-Pro Plus software, version 4.1 (Media cybernetics) was used to capture and process images from the CCD Imager.

[2] = test system: E. coli MG1655/pLAFRI (resistant strain); details: after 4 hours of growth; comparable by CCD imaging, liquid culture or colony counting
Protocol: as §1, §2

CN(C)[C@@H]1C(O)=C(C(N)=O)C(=O)[C@@]2(O)C(O)=C3C(=O)c4c(O)cccc4[C@@](C)(O)[C@H]3C[C@@H]12 [tetracycline]
antibiotic concentration that inhibited growth of the antibiotic sensitive strain [1]: 0.25 µg/mL
antibiotic concentration in which dramatic growth of the resistant strain was evident [2]: 64 µg/mL
